# Article PMC5766581, “NF-κB inducing kinase is a therapeutic target for systemic lupus erythematosus” (Nature Communications, 2018)
# Columns and labels:
# [1] = system: p52 processing in human RPTEC; assay: TWEAK-induced p52 processing western blot in RPTEC; type: cell-based; details: 1 μM, 4, 8 and 24 h
# Description: (§1) p52/p100 and β-actin were monitored by western blot as described previously. […] Mouse and human RPTEC cells were stimulated with recombinant mouse or human TWEAK (100 ng/mL, R&D Systems). Primary B cells were isolated by negative selection (Miltenyi) from either mouse spleen or human whole blood. Human primary B cells were stimulated with either rhCD40L (10 μg/mL) or rhBAFF (400 ng/mL) (R&D Systems). Mouse primary B cells were stimulated with either anti-CD40 (10 μg/mL, BD Biosciences) or rmBAFF (400 ng/mL). […] HeLa cells (ATCC) were stimulated for 8 h with anti-LTβR agonist antibody and cytoplasmic and nuclear extracts were generated using kits purchase from Thermo Scientific and approximately […] of each extract was monitored for p52/p100, phospho-RelA, RelA, or β-Actin, Histone H3, or Lamin B1 controls. Uncropped western blots, as required by journal policies, are provided in Supplementary Fig. 13 and 14.
# [2] = system: p52 processing in mouse RPTEC; assay: TWEAK-induced p52 processing western blot in RPTEC; type: cell-based; details: murine RPTEC; 3 μM; 4, 8 and 24 h
# Description: as §1
smiles,measurement,setting,value
COc1cc(C(N)=O)nc(-c2cccc(C#C[C@]3(O)CCN(C)C3=O)c2)c1 [NIK SMI1],TWEAK-induced p52 processing,[1],significantly reduced
same,TWEAK-induced p52 processing,[2],significantly reduced
